The target of one experiment is Prothrombin (Homo sapiens, UniProt P00734). The experiment can be described thus: Inhibition of thrombin.
Another experiment has as its target Serine protease 1 (Homo sapiens, UniProt P07477). The experiment can be described thus: Inhibition of trypsin.
The target of the next experiment is Coagulation factor X (Homo sapiens, UniProt P00742). The experiment can be described thus: Compound was evaluated for the inhibition of Coagulation factor X.
For the next experiment, the target named is T1, Neutrophil elastase (Homo sapiens, UniProt P08246).
T1 sequence (P08246 whole entry): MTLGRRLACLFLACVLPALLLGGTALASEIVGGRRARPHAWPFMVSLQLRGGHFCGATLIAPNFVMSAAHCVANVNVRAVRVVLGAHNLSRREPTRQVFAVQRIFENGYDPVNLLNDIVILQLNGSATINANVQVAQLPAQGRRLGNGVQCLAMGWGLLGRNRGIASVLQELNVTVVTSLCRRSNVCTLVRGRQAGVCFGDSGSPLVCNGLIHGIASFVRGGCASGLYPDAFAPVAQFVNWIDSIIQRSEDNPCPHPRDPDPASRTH
Kind of experiment: Compound was evaluated for the inhibition of human leukocyte elastase(HLE).

pIC50: −log10 of the molar value. Where only a bound is given, the exact number is not on record here.

A word on the pIC50: it is the IC50 on a negative log10 scale, so that one unit is a factor of ten.

Chain of Serine protease 1 (P07477 whole entry): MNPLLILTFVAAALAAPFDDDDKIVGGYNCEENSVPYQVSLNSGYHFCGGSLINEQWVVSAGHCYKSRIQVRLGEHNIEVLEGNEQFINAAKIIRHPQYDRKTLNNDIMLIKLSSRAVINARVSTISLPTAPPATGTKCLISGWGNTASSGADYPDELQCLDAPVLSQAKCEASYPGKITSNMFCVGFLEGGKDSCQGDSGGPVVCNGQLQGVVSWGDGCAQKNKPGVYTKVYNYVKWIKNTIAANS
Chain of Coagulation factor X (P00742 41-179 limits assumed): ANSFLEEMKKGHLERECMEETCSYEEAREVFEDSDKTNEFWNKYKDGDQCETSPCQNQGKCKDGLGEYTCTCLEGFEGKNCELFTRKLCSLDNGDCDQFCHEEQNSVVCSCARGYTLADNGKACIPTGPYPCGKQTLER
Chain of Coagulation factor X (P00742 235-488 limits assumed): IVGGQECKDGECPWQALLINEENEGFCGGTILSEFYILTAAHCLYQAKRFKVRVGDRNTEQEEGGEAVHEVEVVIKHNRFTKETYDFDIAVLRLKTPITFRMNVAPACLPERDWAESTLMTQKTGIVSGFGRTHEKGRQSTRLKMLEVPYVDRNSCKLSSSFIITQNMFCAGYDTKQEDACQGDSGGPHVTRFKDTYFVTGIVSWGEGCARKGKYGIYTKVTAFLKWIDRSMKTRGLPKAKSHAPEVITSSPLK

Molecule `O=C1O[C@H]2CCC[C@@H]2[C@H]1Cc1ccccc1` had a pIC50 against Prothrombin of 4.04.
For the molecule `N=C(N)c1cccc(C[C@H]2C(=O)O[C@H]3CCC[C@@H]32)c1`, the negative logarithm of the IC50 (pIC50) against Serine protease 1 is 5.48; at Prothrombin it was < 4.00.
Take `CC(C)=CC(=O)C[C@@H]1C(=O)O[C@H]2CCC[C@@H]21`: the pIC50 on Prothrombin was 7.68.
In the case of `C=CC[C@@H]1C(=O)O[C@H]2CCC[C@@H]21`, the pIC50 on Prothrombin was 4.01.
Regarding `N=C(N)CCCC[C@H]1C(=O)O[C@H]2CCC[C@@H]21`, the pIC50 on Serine protease 1 was 7.40; at Coagulation factor X, 4.99; at Prothrombin it was 6.89.
Consider `CC(C)=CC(=O)C[C@H]1C(=O)O[C@H]2C[C@]3(C)C4=CC[C@@H]5[C@](C)(CC[C@H]6OC(=O)[C@@]56C)[C@H]4CC[C@@]3(C)[C@@H]21`, for which the pIC50 is < 5.00 on Neutrophil elastase, 7.15 against Serine protease 1, < 4.70 on Coagulation factor X and 7.34 against Prothrombin.
As for `O=C1O[C@H]2CCC[C@@H]2[C@@H]1Cc1ccccc1`, at Prothrombin, the pIC50 was 4.14.
On the same count and under the same terms, the same measure for `C=CC[C@H]1C(=O)O[C@H]2CCC[C@@H]21`: < 4.30; for `CC(C)=CC(=O)C[C@@H]1C(=O)O[C@H]2CCCC21` (some centres not stated): 7.72.
For `N=C(N)c1ccc(C[C@H]2C(=O)O[C@H]3CCC[C@@H]32)cc1`, the pIC50 against Serine protease 1 is 6.66; at Prothrombin, 4.77.

The record behind these values is ChEMBL document CHEMBL1130641, “5,5-trans lactone-containing inhibitors of serine proteases: identification of a novel, acylating thrombin inhibitor” (Bioorg Med Chem Lett, 1998).
